This data set relates to mouse plasma stability, LC-MS/MS, 48 h. As to the kind of experiment: qHTS Assay to Find Inhibitors of T. brucei phosphofructokinase: Mouse Plasma Stability Profiling. The conditions noted are these: at 2 µM; active compounds read high. (qHTS replaces the single test concentration by a dilution series.)

Each structure is given as a SMILES string.

Regarding `O=C(Cc1ccc(Cl)c(Cl)c1)Nc1ccc(S(=O)(=O)Nc2ccon2)cc1`, the percent remaining was 100%.
